Data from the NIST ThermoML archive (doi:10.1021/je034102r).
± gives the expanded uncertainty stated by the source.

Test: molar heat capacity at constant pressure
Conditions: 101.33 kPa, Liquid, heat bridge-scanning calorimeter

CCCCn1cc[n+](C)c1.F[P-](F)(F)(F)(F)F [1-butyl-3-methylimidazolium hexafluorophosphate]
Conditions	molar heat capacity at constant pressure [J/K/mol]
340.31 K	433.38 ± 8.8
340.44 K	433.38 ± 8.8
340.56 K	433.38 ± 8.8
340.69 K	433.38 ± 8.8
340.82 K	433.66 ± 8.8
340.94 K	433.66 ± 8.8
341.07 K	433.66 ± 8.8
341.19 K	433.66 ± 8.8
341.32 K	433.95 ± 8.8
341.45 K	433.95 ± 8.8
341.72 K	434.23 ± 8.8
341.85 K	434.23 ± 8.8
341.97 K	434.23 ± 8.8
342.1 K	434.23 ± 8.8
342.22 K	434.23 ± 8.8
342.35 K	434.51 ± 8.8
342.48 K	434.51 ± 8.8
342.6 K	434.51 ± 8.8
342.73 K	434.51 ± 8.8
343 K	434.8 ± 8.8
343.13 K	434.8 ± 8.8
343.25 K	434.8 ± 8.8
343.38 K	435.08 ± 8.8
343.51 K	435.08 ± 8.8
343.63 K	435.08 ± 8.8
343.76 K	435.37 ± 8.8
343.88 K	435.37 ± 8.8
344.01 K	435.37 ± 8.8
344.13 K	435.37 ± 8.8
344.26 K	435.65 ± 8.8
344.53 K	435.94 ± 8.8
344.66 K	435.65 ± 8.8
344.78 K	435.94 ± 8.8
344.91 K	435.94 ± 8.8
345.03 K	435.94 ± 8.8
345.16 K	435.94 ± 8.8
345.29 K	436.22 ± 8.8
345.42 K	436.5 ± 8.8
345.55 K	436.22 ± 8.8
345.82 K	436.79 ± 8.8
345.95 K	436.5 ± 8.8
346.07 K	437.07 ± 8.8
346.2 K	436.79 ± 8.8
346.32 K	437.07 ± 8.8
346.45 K	437.07 ± 8.8
346.57 K	437.07 ± 8.8
346.7 K	437.07 ± 8.8
346.82 K	437.36 ± 8.8
346.95 K	437.36 ± 8.8
347.08 K	437.64 ± 8.8
347.35 K	437.36 ± 8.8
347.47 K	437.64 ± 8.8
347.6 K	437.64 ± 8.8
347.72 K	437.64 ± 8.8
347.85 K	437.93 ± 8.8
347.97 K	437.93 ± 8.8
348.1 K	437.93 ± 8.8
348.22 K	437.93 ± 8.8
348.35 K	438.21 ± 8.8
348.63 K	438.21 ± 8.8
348.76 K	438.21 ± 8.8
348.88 K	438.49 ± 8.8
349.01 K	438.21 ± 8.8
349.13 K	438.49 ± 8.8
349.26 K	438.49 ± 8.8
349.38 K	438.78 ± 8.8
349.51 K	438.78 ± 8.8
349.63 K	438.78 ± 8.8
349.76 K	438.78 ± 8.8
349.88 K	439.06 ± 8.8
350.19 K	439.35 ± 8.8
350.32 K	439.35 ± 8.8
350.44 K	439.35 ± 8.8
350.57 K	439.35 ± 8.8
350.69 K	439.63 ± 8.8
350.82 K	439.63 ± 8.8
350.94 K	439.63 ± 8.8
351.07 K	439.63 ± 8.8
351.21 K	439.35 ± 8.8
351.49 K	439.91 ± 8.8
351.61 K	439.63 ± 8.8
351.74 K	439.91 ± 8.8
351.86 K	440.2 ± 8.8
351.99 K	440.2 ± 8.8
352.11 K	440.2 ± 8.8
352.24 K	440.2 ± 8.8
352.36 K	440.48 ± 8.8
352.49 K	440.48 ± 8.8
352.61 K	440.48 ± 8.8
352.74 K	440.77 ± 8.8
353.01 K	440.77 ± 8.8
353.13 K	440.77 ± 8.8
353.26 K	441.05 ± 8.8
353.38 K	441.05 ± 8.8
353.51 K	441.34 ± 8.8
353.64 K	441.34 ± 8.8
